# Reference: paper PMC5544527 (Journal of neuroscience research, 2015)
# Assays:
# Type in all cases: cell-based
# [1] = molecular target: GABAA receptor α4β3δ (Homo sapiens, UniProt P28472+P48169); test: whole-cell patch clamp, potentiation of GABA
# [2] = molecular target: T1, GABAA receptor α1β2γ2 (Homo sapiens, UniProt P14867+P47870); test: whole-cell patch clamp, potentiation of GABA
# [3] = molecular target: T1, GABAA receptor α1β2γ2; test: whole-cell patch clamp, potentiation of GABA-evoked currents at […]
# GABAA receptor α4β3δ, sequence (P48169 36-554): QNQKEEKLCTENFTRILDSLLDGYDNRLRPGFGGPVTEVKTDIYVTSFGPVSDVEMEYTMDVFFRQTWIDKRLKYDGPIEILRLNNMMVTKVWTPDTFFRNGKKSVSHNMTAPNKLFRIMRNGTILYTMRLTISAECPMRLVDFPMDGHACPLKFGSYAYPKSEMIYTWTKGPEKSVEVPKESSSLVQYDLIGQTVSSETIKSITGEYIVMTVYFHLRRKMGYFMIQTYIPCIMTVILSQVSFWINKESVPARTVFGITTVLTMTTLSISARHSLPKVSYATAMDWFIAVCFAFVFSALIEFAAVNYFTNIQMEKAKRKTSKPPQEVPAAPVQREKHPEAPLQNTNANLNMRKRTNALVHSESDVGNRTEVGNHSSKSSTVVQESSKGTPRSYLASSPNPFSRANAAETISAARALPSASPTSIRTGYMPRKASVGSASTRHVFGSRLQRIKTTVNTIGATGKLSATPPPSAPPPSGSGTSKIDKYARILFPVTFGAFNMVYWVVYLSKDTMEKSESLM
# GABAA receptor α4β3δ, sequence (P28472 26-473): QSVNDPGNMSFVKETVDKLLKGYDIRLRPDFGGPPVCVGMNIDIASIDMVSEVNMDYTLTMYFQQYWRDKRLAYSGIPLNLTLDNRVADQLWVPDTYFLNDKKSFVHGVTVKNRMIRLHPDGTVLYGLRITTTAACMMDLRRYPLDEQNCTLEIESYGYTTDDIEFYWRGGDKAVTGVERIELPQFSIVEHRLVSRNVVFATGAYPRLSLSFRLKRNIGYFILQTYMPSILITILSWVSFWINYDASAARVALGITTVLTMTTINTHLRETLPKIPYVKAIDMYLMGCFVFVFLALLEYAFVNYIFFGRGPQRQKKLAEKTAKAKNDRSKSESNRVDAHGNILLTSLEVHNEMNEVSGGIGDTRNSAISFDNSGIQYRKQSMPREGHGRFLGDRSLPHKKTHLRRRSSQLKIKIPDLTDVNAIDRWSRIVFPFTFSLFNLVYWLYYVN
# GABAA receptor α4β3δ, sequence (O14764 25-452 partner): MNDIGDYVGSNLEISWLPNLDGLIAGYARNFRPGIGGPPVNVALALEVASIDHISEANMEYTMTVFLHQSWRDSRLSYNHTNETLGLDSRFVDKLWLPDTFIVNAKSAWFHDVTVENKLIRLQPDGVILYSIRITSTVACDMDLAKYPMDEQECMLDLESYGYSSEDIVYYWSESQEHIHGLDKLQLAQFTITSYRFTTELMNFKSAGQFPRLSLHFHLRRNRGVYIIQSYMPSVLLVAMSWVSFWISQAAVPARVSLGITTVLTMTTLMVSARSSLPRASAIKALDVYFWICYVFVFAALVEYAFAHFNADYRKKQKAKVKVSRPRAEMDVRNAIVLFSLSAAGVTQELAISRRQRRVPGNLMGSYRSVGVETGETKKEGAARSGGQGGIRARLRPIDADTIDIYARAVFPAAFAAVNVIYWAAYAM
# T1 sequence (P14867 28-456): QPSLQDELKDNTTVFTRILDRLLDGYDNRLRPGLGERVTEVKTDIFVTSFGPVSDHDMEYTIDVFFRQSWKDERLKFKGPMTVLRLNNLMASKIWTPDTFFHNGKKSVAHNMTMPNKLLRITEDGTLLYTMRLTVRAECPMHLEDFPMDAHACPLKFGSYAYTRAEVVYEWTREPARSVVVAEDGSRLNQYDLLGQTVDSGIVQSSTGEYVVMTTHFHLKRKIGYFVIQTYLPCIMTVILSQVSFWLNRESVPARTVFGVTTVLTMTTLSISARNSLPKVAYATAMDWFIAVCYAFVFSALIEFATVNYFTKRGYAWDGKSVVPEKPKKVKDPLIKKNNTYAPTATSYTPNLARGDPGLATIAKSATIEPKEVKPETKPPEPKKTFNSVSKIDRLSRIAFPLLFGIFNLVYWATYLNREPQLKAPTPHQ
# T1 sequence (P47870 26-512): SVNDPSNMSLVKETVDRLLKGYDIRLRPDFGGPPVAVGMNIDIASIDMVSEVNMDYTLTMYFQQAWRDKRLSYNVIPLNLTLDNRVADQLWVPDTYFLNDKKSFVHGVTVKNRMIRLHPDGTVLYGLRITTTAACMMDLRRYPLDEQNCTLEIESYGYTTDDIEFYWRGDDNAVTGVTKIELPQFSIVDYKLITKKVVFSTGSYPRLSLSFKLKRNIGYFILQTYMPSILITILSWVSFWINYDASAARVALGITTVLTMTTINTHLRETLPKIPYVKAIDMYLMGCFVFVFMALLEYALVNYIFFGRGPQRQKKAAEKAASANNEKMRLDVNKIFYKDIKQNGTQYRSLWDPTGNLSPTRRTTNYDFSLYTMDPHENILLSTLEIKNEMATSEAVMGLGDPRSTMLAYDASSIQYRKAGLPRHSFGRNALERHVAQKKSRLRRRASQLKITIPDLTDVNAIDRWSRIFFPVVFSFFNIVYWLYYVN
# T1 sequence (P18507 40-475 partner): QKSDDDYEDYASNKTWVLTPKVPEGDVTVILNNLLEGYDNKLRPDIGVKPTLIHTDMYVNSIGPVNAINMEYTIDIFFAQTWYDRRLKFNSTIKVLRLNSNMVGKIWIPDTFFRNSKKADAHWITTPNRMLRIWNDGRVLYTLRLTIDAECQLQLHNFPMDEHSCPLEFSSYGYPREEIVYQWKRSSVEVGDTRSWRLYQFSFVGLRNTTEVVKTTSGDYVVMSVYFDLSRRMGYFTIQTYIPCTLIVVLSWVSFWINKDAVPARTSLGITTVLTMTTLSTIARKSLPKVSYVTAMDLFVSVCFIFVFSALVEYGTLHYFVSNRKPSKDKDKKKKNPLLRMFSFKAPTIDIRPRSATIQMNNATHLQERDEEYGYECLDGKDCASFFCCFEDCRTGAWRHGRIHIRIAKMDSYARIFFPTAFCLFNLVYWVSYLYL
Compound,EC50 [1],EC50 [2],% potentiation at 10 μM [3]
CC(=O)[C@H]1CC[C@H]2[C@@H]3CC[C@H]4C[C@H](O)CC[C@]4(C)[C@H]3CC[C@]12C [allopregnanolone],80 nM,185 nM,–
SGE-872,160 nM,–,744 % potentiation at 10 µM
